Activity calls are given as the source filed them. No cut-off for these calls is given here.
These compounds were tested on 3T3-L1 (assay: Increase in insulin-stimulated [3H]2-deoxy-D-glucose uptake in mouse 3T3L1cells at 1 uM after 3 days by liquid scintillation counting relative to insulin).
Format: functional, cell-based
With `COc1c(O)c(C)c(O)c2c1OC[C@@H](Cc1ccc(O)cc1)C2=O` the Activity was “Active”.
`COc1ccc(CC2COc3c(C)c(O)c(C)c(O)c3C2=O)cc1O` (racemic) was tested, and the Activity was “Active”.
With `COc1ccc(C[C@@H]2COc3c(OC)c(O)c(C)c(O)c3C2=O)cc1` the Activity was “Active”.
For `O=C1/C(=C/c2ccc(O)cc2)COc2cc(O[C@@H]3O[C@H](CO)[C@@H](O)[C@H](O)[C@H]3O)cc(O)c21`, the Activity was “Active”.
For `COc1ccc(CC2COc3c(OC)c(O)c(C)c(O)c3C2=O)c(O)c1` (racemic), the Activity was “Active”.
With `COc1ccc(C[C@@H]2COc3c(C)c(O)c(C)c(O)c3C2=O)cc1` the Activity was “Active”.
`Cc1c(O)c(C)c2c(c1O)C(=O)[C@H](Cc1ccc(O)cc1)CO2` was tested, and the Activity was “Active”.
With `Cc1c(O)c(C)c2c(c1O)C(=O)/C(=C/c1ccc(O)cc1)CO2` the Activity was “Active”.
`COc1ccc(CC2COc3c(C)c(O)c(C)c(O)c3C2=O)c(O)c1` (racemic) was tested, and the Activity was “Active”.
In the case of `COc1c(O[C@@H]2O[C@H](CO)[C@@H](O)[C@H](O)[C@H]2O)cc2occ(-c3ccc(O)cc3)c(=O)c2c1O`, the Activity is reported as “Active”.
In the case of `COc1ccc([C@@H]2CC(=O)c3c(O)cc(O[C@@H]4O[C@H](CO[C@@H]5O[C@@H](C)[C@H](O)[C@@H](O)[C@H]5O)[C@@H](O)[C@H](O)[C@H]4O)cc3O2)cc1O`, the Activity is reported as “Active”.
